According to patent publication US9884012B2, “Use of PEDF-derived polypeptides for promoting muscle or tendon regeneration or arteriogenesis” (MacKay Memorial Hospital, priority 2012, dated 2018):
Several values for one entry are separate records, joined by “and”; a condition that tells them apart may be missing. Equal entries are not always repeated.

Columns and labels:
[1] = tested on: ischemic hindlimbs; assay: hindlimb ischemia model, laser Doppler perfusion imaging of limb blood perfusion; assay type: in vivo, C57BL/6 wild-type mice; conditions: for Ischemic/Non-ischemic Perfusion Ratio (%) 7 days: 7 days after surgery, 50 μl sustained-release alginate gel formulation, 10 μM peptide (Bolus: bolus formulation of 29-mer), single intramuscular injection to gracilis muscle; for Ischemic/Non-ischemic Perfusion Ratio (%) 21 days: 21 days after surgery; for Ischemic/Non-ischemic Perfusion Ratio (%) 21 days / Ischemic/Non-ischemic Perfusion Ratio (%) 28 days: sustained-release formulation (Bolus: bolus 29-mer), single intramuscular injection; for Ischemic/Non-ischemic Perfusion Ratio (%) 28 days: 28 days (four weeks) after surgery; for Ischemic/Non-ischemic Perfusion Ratio (%) Pre OP: before surgery (baseline); for Ischemic/Non-ischemic Perfusion Ratio (%) Pre OP / Ischemic/Non-ischemic Perfusion Ratio (%) Post OP: LDPI; for Ischemic/Non-ischemic Perfusion Ratio (%) Post OP: immediately after surgery
Protocol: 6-week-old female C57BL/6 wild-type mice were anesthetized by an intraperitoneal injection of a mixture of zoletil (6 mg/kg) and xylazine (3 mg/kg). Hair was removed from the hindquarter with a depilating cream. To establish hindlimb ischemia, unilateral external iliac and femoral arteries and veins were ligated, cut, and excised. After surgery, the mice were randomly assigned to several experimental groups (n=6, each group) and treated as follows. In the blank control group, the mice were treated with 50 μl of blank alginate gel, whereas in the bolus control group, the mice received the bolus formulation containing 29-mer. In the PEDF peptide/alginate gel treatment groups, the mice received 50 μl of the sustained-release formulation, which comprised either 29-mer, 24-mer, or 20-mer. Additionally, in a PEDF 18-mer control group, mice were treated with a sustained-release formulation containing a PEDF 18-mer peptide. Treatments were applied by way of a single intramuscular injection to the gracilis muscle immediately after femoral artery and vein excision operation. The incision was closed after the wound was irrigated with sterile saline.
A laser Doppler perfusion imaging (LDPI) analyzer (Moor Instruments, USA) was used to quantify hindlimb blood perfusion before surgery (pre OP), immediately after surgery (post OP), and over time after surgery. To minimize vasoconstriction by anesthetic heat loss, animals were kept on a heating plate at 37° C. for 5 min before measurement. Representative LDPI images illustrating the blood perfusion of ischemic hindlimbs over a time period of 4 weeks were provided in FIG. 2 in which dark blue color represents low blood flow. Blood perfusion is expressed as LDPI index representing the ratio of operated (ischemic) versus non-operated (non-ischemic) limb blood flow of the same mouse, and the results were summarized in FIG. 3 and Table 1 (n 6).

[2] = tested on: tendon stem cells (TSCs); assay: TSCs proliferation assay (BrdU labeling) in vitro; assay type: cell-based, New Zealand White rabbits; conditions: TSCs passage 4; 50 nM peptide, 5% FBS, 24 hours; BrdU pulse-labeling
Protocol: New Zealand White rabbits (6-8 months old, 3.0-4.0 kg) were used in this study. Achilles tendons were removed from the rabbits by cutting through their bony attachments. The tendon sheath was stripped away and the core portion of the tendons was minced into small fragments. Each 100 mg of fragment was then digested in a solution containing 3 mg/mL of type I collagenase and 4 mg/mL of dispase in 1 ml Dulbecco's Modified Eagle Medium (DMEM-high glucose) at 37° C. for 2 hours. The resultant cell suspension was centrifuged at 1,000 rpm for 15 minutes to obtain a cell pellet which was then resuspended in a growth medium consisting of DMEM supplemented with 10% heat inactivated fetal bovine serum (FBS), 100 μM 2-mercaptoethanol, and 100 U/ml penicillin and 100 μg/ml streptomycin. For passage, near-confluent cells were harvested with 0.25% trypsin and then 1×10^5 subcultured cells were further cultured in medium.
The TSCs at passage 4 were seeded at gelatin-coated slide in a 6-well plate at a density of 2×10^5 cells per well and cultured in growth medium (DMEM+10% FBS) for 24 hours before being replaced by a basal growth medium with 5% FBS only (control group) or with 5% FBS plus an additional 50 nM of PEDF-derived peptide (i.e., 29-mer, 24-mer, 20-mer, 18-mer, Mo 29-mer, or Mo 20-mer) for 24 hours. For BrdU labeling assay, BrdU (final concentration, 10 μM) was added to the culture for 4 hours. After fixing with 4% paraformaldehyde, cells were exposed to cold methanol for 2 minutes, and then treated with 1 N HCl at RT for 1 hour before performing immunofluorescence. The phenotype of passage 4 TSC was determined by immunocytochemistry of nucleostemin and type I collagen. Almost all of expanded TSCs were nucleostemin and type I collagen-double positive cells.
It has been reported that during the tendon healing process, tendon stem cells (TSCs) would proliferate and differentiate into tenocytes. To investigate whether present PEDF peptides would induce the proliferation of TSCs in vitro, tendons stem cells were isolated and cultured as described in the “Materials and Methods” section. The purity of TSCs was confirmed by a TSC marker, nucleostemin, as well as the expression of type I collagen by TSCs; together, these analyses indicated a TSC purity of near 100% (data not shown). The proliferation of TSCs was confirmed by BrdU pulse-labeling for 2 hours. Quantitative analysis of the level of BrdU-positive cells was performed as described above, and the results were summarized in Table 8.

[3] = tested on: tendo Achilles; assay: tendo Achilles injury model, histology and collagen in regenerated area; assay type: in vivo, Sprague-Dawley rats; conditions: three weeks after tendon injury; for Collagen in Regenerated Area (%): 150 μl sustained-release formulation (Bolus: bolus 29-mer) subcutaneously near tendon lesion
Protocol: De-paraffinized tendon tissue sections were stained using Masson's Trichrome according to the manufacturer's instructions. For semi-quantitative analysis of collagen area, 10 fields from each slide were randomly selected under a light microscope, and the repairing area per intact tendon area of the cross section (mm^2/mm^2) was measured using the Image-Pro Plus 4.5.1 system.
To investigate the effects of the present PEDF peptides on tendon regeneration, a rat model with tendon injury was established as follows. Adult 10-week-old male Sprague-Dawley rats (total n=50; initial body weight=312±11 g) were anesthetized by an intraperitoneal injection of a xylazine (10 mg/kg). Then, the left tendo Achilles injury was created by full-thickness insertion of an 18-gauge needle through tendo Achilles 1 cm proximal to its insertion into the calcaneum. This created a horizontal (transaction) wound which was flanked by intact tendon tissue on both sides to prevent the retraction of severed ends.
The rats were randomly assigned (n=10/group) to five experimental groups and treated as follows. In the blank control group, the mice were treated with 150 μl of blank alginate gel. For the bolus control group, 150 μl of the bolus formulation (29-mer) was administered. In the treatments groups, the mice received 150 μl of the sustained-release formulation (29-mer, 24-mer, or 20-mer). Treatments were injected subcutaneously near tendon lesion immediately after the injury, and the incision was closed after the wound was irrigated with sterile saline.
Three weeks after tendon injury, histologic analysis was performed to observe the healing of the tendon. As could be seen in the upper panel of FIG. 10, in animals treated with blank control, a broad band of disorganized fibrous scar was formed between the two cut ends, and the pink stained collagen bundle was minimal in the scar tissue. […] Also, the fibrous tissue in the scar was more organized and in parallel direction in the 29-mer treatment group.
Quantitative analysis was also performed to assess the percentage of collagen (%) in the regenerated area, and results were summarized in Table 7.

Row | Sequence | Ischemic/Non-ischemic Perfusion Ratio (%) 7 days [1] | Ischemic/Non-ischemic Perfusion Ratio (%) 21 days [1] | Ischemic/Non-ischemic Perfusion Ratio (%) 28 days [1] | Ischemic/Non-ischemic Perfusion Ratio (%) Pre OP [1] | Ischemic/Non-ischemic Perfusion Ratio (%) Post OP [1] | BrdU Labeling Index (%) [2] | Collagen in Regenerated Area (%) [3] | tendon healing, histology of cut ends ([3]; sustained-release formulation, in words)
1 | SLGAEQRTESIIHRALYYDL [20-mer, synthetic peptide corresponding to residues 93-112 of human PEDF] | 43.3 ± 7.2 % | 75.5 ± 5.2 % | 93% and 92.7 ± 3.0 % | 98.0 ± 7.8% | 4.6 ± 0.64% | 33.2 ± 6.6 % | 82.01 ± 6.55% | –
2 | SLGAEQRTESIIHRALYYDLISSP [24-mer, synthetic peptide corresponding to residues 93-116 of human PEDF] | 53.1 ± 0.37 % | 86.1 ± 5.9 % | 92% and 91.8 ± 5.5 % | 91.5 ± 5.6% | 8.0 ± 0.03% | 29.0 ± 4.6 % | 85.75 ± 2.56% | –
3 | SLGAEQRTESIIHRALYYDLISSPDIHGT [29-mer, synthetic peptide corresponding to residues 93-121 of human PEDF] | 44.8 ± 2.0 % | 101 ± 7.0 % | 105% and 105 ± 4.8 % | 108.2 ± 8.8% | 7.0 ± 3.1% | 31.8 ± 3.6 % | 88.75 ± 1.89% | healed with much lesser scar tissue
